# Test results taken from ChEMBL document CHEMBL1126508, “Quinazolinones 1: design and synthesis of potent quinazolinone- containing AT1-selective angiotensin-II receptor antagonists” (Bioorg Med Chem Lett, 1993).
# What was measured:
# [1] = target: T1, Type-1 angiotensin II receptor (Oryctolagus cuniculus, UniProt P34976); assay: Binding affinity against Angiotensin II type 1 Receptor in rabbit aortic tissue; format: tissue-based, Aorta
# T1 sequence (P34976 whole entry): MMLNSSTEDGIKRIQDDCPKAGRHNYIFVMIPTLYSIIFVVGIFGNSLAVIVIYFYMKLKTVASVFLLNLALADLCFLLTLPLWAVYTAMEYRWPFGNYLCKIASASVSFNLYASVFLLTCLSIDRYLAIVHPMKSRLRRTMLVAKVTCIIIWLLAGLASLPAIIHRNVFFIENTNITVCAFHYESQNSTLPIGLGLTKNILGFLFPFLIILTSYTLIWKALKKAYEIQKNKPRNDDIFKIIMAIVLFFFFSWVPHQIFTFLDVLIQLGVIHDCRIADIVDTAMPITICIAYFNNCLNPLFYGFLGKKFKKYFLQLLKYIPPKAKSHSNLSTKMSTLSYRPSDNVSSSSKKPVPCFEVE
# [2] = Tested for Lipophilicity of the compound; format: physicochemical; conditions: octanol/water
# [3] = target: T1, Type-1 angiotensin II receptor; assay: Ability to displace [125I]Sar1-Ile8-AII from Angiotensin II receptor, type 1 in rabbit aorta in presence of 0.2% bovine serum albumin (BSA) was determined in vitro; format: tissue-based
Structure (SMILES),IC50 [1],Lipophilicity [2],IC50 [3]
CCCCc1nc2ccc(I)cc2c(=O)n1Cc1ccc(-c2ccccc2-c2nnn[nH]2)cc1,,1.12,12 nM
CCCCc1nc2ccc(C(F)(F)F)cc2c(=O)n1Cc1ccc(-c2ccccc2-c2nn[nH]n2)cc1,,0.88,12 nM
CCCCc1nc2ccc(N)cc2c(=O)n1Cc1ccc(-c2ccccc2-c2nnn[nH]2)cc1,1.3 nM,-1.23,
CCc1nc2ccc(C)cc2c(=O)n1Cc1ccc(-c2ccccc2-c2nn[nH]n2)cc1,> 100 nM,,
CCCCc1nc2ccc([N+](=O)[O-])cc2c(=O)n1Cc1ccc(-c2ccccc2-c2nn[nH]n2)cc1,28 nM,-0.28,
CCCCc1nc2ccc(OC)cc2c(=O)n1Cc1ccc(-c2ccccc2-c2nnn[nH]2)cc1,5 nM,-0.02,
CCCCC(=O)Nc1ccc2nc(CCCC)n(Cc3ccc(-c4ccccc4-c4nnn[nH]4)cc3)c(=O)c2c1,2 nM,,
CCCCc1nc2ccc(NC(C)=O)cc2c(=O)n1Cc1ccc(-c2ccccc2-c2nnn[nH]2)cc1,9 nM,-0.97,
CCCCc1nc2cccc(F)c2c(=O)n1Cc1ccc(-c2ccccc2-c2nn[nH]n2)cc1,10 nM,,
CCCCc1nc2cc(OC)c(OC)cc2c(=O)n1Cc1ccc(-c2ccccc2-c2nnn[nH]2)cc1,13 nM,,

# Next, values leading:
IC50 [1],Lipophilicity [2],IC50 [3],Structure (SMILES)
380 nM,,,CCCCc1nc2cc3ccccc3cc2c(=O)n1Cc1ccc(-c2ccccc2C(=O)O)cc1
26 nM,0.14,,CCCCc1nc2ccc(F)cc2c(=O)n1Cc1ccc(-c2ccccc2-c2nn[nH]n2)cc1
10 nM,0,,CCCCc1nc2ccccc2c(=O)n1Cc1ccc(-c2ccccc2-c2nn[nH]n2)cc1
1400 nM,,,CCCCc1nc2c(C)cccc2c(=O)n1Cc1ccc(-c2ccccc2C(=O)O)cc1
92 nM,,,CCCCc1nc2ccc(C)cc2c(=O)n1Cc1ccc(-c2ccccc2C(=O)O)cc1
200 nM,,,CCCCc1nc2ccccc2c(=O)n1Cc1ccc(-c2ccccc2C(=O)O)cc1
29 nM,0.71,,CCCCc1nc2ccc(Cl)cc2c(=O)n1Cc1ccc(-c2ccccc2-c2nn[nH]n2)cc1
15 nM,,,CCCCc1nc2cc(Cl)ccc2c(=O)n1Cc1ccc(-c2ccccc2-c2nn[nH]n2)cc1
4 nM,0.56,,CCCCc1nc2ccc(C)cc2c(=O)n1Cc1ccc(-c2ccccc2-c2nnn[nH]2)cc1
6.4 nM,,,CCCCCc1nc2ccc(C)cc2c(=O)n1Cc1ccc(-c2ccccc2-c2nnn[nH]2)cc1
370 nM,,,CCCCc1nc2cccc(C)c2c(=O)n1Cc1ccc(-c2ccccc2C(=O)O)cc1
10 nM,,,CCCc1nc2ccc(C)cc2c(=O)n1Cc1ccc(-c2ccccc2-c2nn[nH]n2)cc1
370 nM,,,CCCCc1nc2cc(C)ccc2c(=O)n1Cc1ccc(-c2ccccc2C(=O)O)cc1
